In one data set the target is RPE65 (Bos taurus (Bovine), UniProt Q28175). Description: RPE65 retinoid isomerase activity assay (11-cis-retinol production by bovine RPE microsomes). Type of data set: biochemical. To be noted: for IC50: inhibition of RPE65-mediated isomerization, decline in 11-cis-retinol production, bovine RPE microsomes. The method, then: After incubation at room temperature for 5 min, the resulting mixture was mixed with half microliter of all-trans-retinol (5 mM) in DMF, and then incubated at 37° C. for 1 h. The reaction was quenched by adding 400 μL of methanol (Fisher Chemical, Fair Lawn, NJ), and the products were extracted with 400 μL of hexanes.
RPE65, sequence (Q28175 whole entry): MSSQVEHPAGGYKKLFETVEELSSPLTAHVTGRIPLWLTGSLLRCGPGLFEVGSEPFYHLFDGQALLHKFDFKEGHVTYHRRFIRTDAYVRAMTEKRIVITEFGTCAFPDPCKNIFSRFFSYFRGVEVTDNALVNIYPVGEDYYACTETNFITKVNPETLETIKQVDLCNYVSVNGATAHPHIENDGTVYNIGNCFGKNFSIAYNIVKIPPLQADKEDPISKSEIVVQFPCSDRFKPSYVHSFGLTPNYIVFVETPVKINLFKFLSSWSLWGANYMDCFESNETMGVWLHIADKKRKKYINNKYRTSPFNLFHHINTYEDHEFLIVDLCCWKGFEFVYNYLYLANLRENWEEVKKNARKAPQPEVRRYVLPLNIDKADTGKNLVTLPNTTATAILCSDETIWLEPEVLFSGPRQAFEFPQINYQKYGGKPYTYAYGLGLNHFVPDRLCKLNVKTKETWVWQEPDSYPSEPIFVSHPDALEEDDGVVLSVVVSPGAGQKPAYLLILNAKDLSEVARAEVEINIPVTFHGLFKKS

Data set [1] can be described thus: Quantification of primary amine compound levels in serum and eyes of mice after intraperitoneal treatment (LC-MS/MS). To be noted: mouse, 380 nmol i.p.; for initial plasma (serum) level: 3 h. It counts as in vivo. The procedure:
Eight weeks old BL/6J mice were treated with 380 nmol visual cycle modulator 24, 49, 57, 58, 59 or emixustat in DMSO (50 μL) by intraperitoneal injection, and sacrificed at 3 h, 1 day, or 7 days later. Blood and eyeball samples were collected immediately. After clotting at room temperature for 30 min, the blood samples were centrifuged for 10 minutes at 17,000 g in a temperature-controlled benchtop centrifuge (Eppendorf AG). Each serum sample (100 μL) was carefully removed to avoid disturbing loose clots, precipitated with […] of pre-cooled methanol, and centrifuged at 17,000 g for 15 min at 4° C. The supernatant was carefully transferred to a SpinX centrifuge tube filter with a 0.45 μm cellulose acetate membrane (Costar, Salt Lake City, UT), and centrifuged at 7,000 g for 2 min. Filtered samples were dried under vacuum, reconstituted in 100 μL 50% methanol/water, and centrifuged at 17,000 g for 15 min at 4° C. The resulting supernatants were ready for Liquid Chromatography/Mass Spectrometry analyses. The two eyeballs from each mouse were homogenized in acetonitrile (2×800 μL). The resulting mixture was centrifuged at 17,000 g for 15 min at 4° C. The supernatant was dried under vacuum, reconstituted in 100 μl 50% methanol/water, and centrifuged at 17,000 g for 15 min at 4° C. Twenty microliters of the supernatant extracted from serum or eye samples was injected into an Ultimate 3000 HPLC system coupled with LXQ mass spectrometer (ThermoFisher Scientific, Waltham, MA) with an electrospray ionization unit.

The mark [2] stands for this setting: RPE65 inhibition, ratio of IC50.

Several values for one entry are separate records, joined by “and”; a condition that tells them apart may be missing. Equal values may be shown once. Entries after “also recorded” stand apart in the source; their conditions may differ.

The results in this text go back to patent publication US20240122876A1, “COMPOSITIONS AND METHODS FOR THE TREATMENT OF OCULAR DISORDERS” (Case Western Reserve University, priority 2021, published 2024).

Take `CCCC(CCC)COc1ccc(F)c(C(O)CCN)c1` (racemic) [Compound 27, (S/R)-3-amino-1-(2-fluoro-5-((2-propylpentyl)oxy)phenyl)propan-1-ol]: the IC50 (as a rule, the point on the concentration scale where inhibition reaches its midpoint) at RPE65 is 157 ± 24 nM.
On the same count and under the same terms, as for `CCCC(CCC)COc1cc(F)cc(C(O)CCN)c1` (racemic) [Compound 25, (S/R)-3-amino-1-(3-fluoro-5-((2-propylpentyl)oxy)phenyl)propan-1-ol], the figure is 295 ± 132 nM; as for `CCCC(CCC)COc1cccc(C(O)CCN)c1F` (racemic) [Compound 29, (S/R)-3-amino-1-(2-fluoro-3-((2-propylpentyl)oxy)phenyl)propan-1-ol], 287 ± 283 nM; as for `CC1=C(COc2cc(F)cc(C(O)CCN)c2)C(C)(C)CCC1` (stereo not shown) [Compound 54, 3-amino-1-(3-fluoro-5-((2,6,6-trimethylcyclohex-1-en-1-yl)methoxy)phenyl)propan-1-ol], 292 ± 89 nM.
Still for that read-out and setting: next, `CCCC(CCC)COc1cccc(C(O)CCN)c1F` (racemic) [Compound 30, (S/R)-3-amino-1-(2-fluoro-3-((2-propylpentyl)oxy)phenyl)propan-1-ol]: 274 ± 47 nM.
Still for that read-out and setting: next, `[2H]C([2H])(N)CC(O)c1cccc(OCC2CCC(F)(F)CC2)c1` (stereo not shown) [Compound 59, 3-amino-1-(3-((4,4-difluorocyclohexyl)methoxy)phenyl)propan-3,3-d2-1-ol]: 269 ± 40 nM; `CC1=C(COc2cccc(C(O)CCN)c2F)C(C)(C)CCC1` (stereo not shown) [Compound 56, 3-amino-1-(2-fluoro-3-((2,6,6-trimethylcyclohex-1-en-1-yl)methoxy)phenyl)propan-1-ol]: 169 ± 13 nM.
`CCCC(CCC)COc1cccc([C@H](O)CCN)c1` [(R)-MB-004, reference compound] came in with an IC50 against RPE65 of 106 ± 16 nM.
As to `CCCC(CCC)COc1cc([C@H](O)CCN)ccc1F` [Compound 24, (R)-3-Amino-1-(4-fluoro-3-((2-propylpentyl)oxy)phenyl)propan-1-ol], in data set [1], the “distribution within ocular tissue” value is “poorest distribution within ocular tissue”, the plasma half-life result is on record as “longer plasma half-life” and the “initial plasma (serum) level” value is recorded as “highest initial plasma levels”. Also, at RPE65 (setting [2]), the “inhibitory potency / IC50 relative to (R)-MB-004” value is given as “twice; also recorded: approximately two-fold lower” and the “inhibitory potency relative to racemic emixustat” value is recorded as 3 times. At RPE65, this compound returned an IC50 of 50 ± 9 nM.
Turning to `CCCC(CCC)COc1ccc(F)c(C(O)CCN)c1` (racemic) [Compound 28, (S/R)-3-amino-1-(2-fluoro-5-((2-propylpentyl)oxy)phenyl)propan-1-ol], on RPE65, the IC50 was determined as 132 ± 19 nM.
`CC1=C(COc2cccc([C@H](O)CCN)c2)C(C)(C)CCC1` [(R)-MB-001, reference compound]: the half-maximal inhibitory concentration (IC50) on RPE65 was 323 ± 145 nM.
`NCCC(O)c1cccc(OCC2CCC(F)(F)CC2)c1` (stereo not shown) [Compound 57, 3-amino-1-(3-((4,4-difluorocyclohexyl)methoxy)phenyl) propan-1-ol]: in data set [1], the “distribution within ocular tissue” value was “further enhanced ocular distribution”. Moreover, the IC50 at RPE65 is 100 nM and 103 nM.
With `CCCC(CCC)COc1cc(F)cc(C(O)CCN)c1` (racemic) [Compound 26, (S/R)-3-amino-1-(3-fluoro-5-((2-propylpentyl)oxy)phenyl)propan-1-ol], at RPE65, the IC50 came to 184 ± 24 nM.
Same read-out and setting: as for `NCCC(O)c1cc(OCC2CCCCC2)ccc1F` (stereo not shown) [Compound 51, 3-amino-1-(5-(cyclohexylmethoxy)-2-fluorophenyl)propan-1-ol], the figure is 145 ± 9 nM.
As to `CC1=C(COc2cc(C(O)CCN)ccc2F)C(C)(C)CCC1` (stereo not shown) [Compound 53, 3-amino-1-(4-fluoro-3-((2,6,6-trimethylcyclohex-1-en-1-yl)methoxy)phenyl)propan-1-ol], the IC50 on RPE65 is 284 ± 20 nM.
As to `NCCC(O)c1ccc(F)c(OCC2CCCCC2)c1` (stereo not shown) [Compound 49, 3-amino-1-(3-(cyclohexylmethoxy)-4-fluorophenyl)propan-1-ol], in data set [1], the “distribution within ocular tissue” value is on record as “poorest distribution within ocular tissue” and the “initial plasma (serum) level” value is recorded as “highest initial plasma levels”. For the same compound, the IC50 against RPE65 worked out at 95 ± 5 nM.
Regarding `CCCC(CCC)COc1cc([C@@H](O)CCN)ccc1F` [Compound 23, (S)-3-Amino-1-(4-fluoro-3-((2-propylpentyl)oxy)phenyl)propan-1-ol], inhibition at RPE65 was half-maximal at 177 ± 11 nM (IC50).
The same measure, in the same setting: as for `NCCC(O)c1cc(F)cc(OCC2CCCCC2)c1` (stereo not shown) [Compound 50, 3-amino-1-(3-(cyclohexylmethoxy)-5-fluorophenyl)propan-1-ol], the figure is 201 ± 23 nM; as for `CC1=C(COc2ccc(F)c(C(O)CCN)c2)C(C)(C)CCC1` (stereo not shown) [Compound 55, 3-amino-1-(2-fluoro-5-((2,6,6-trimethylcyclohex-1-en-1-yl)methoxy)phenyl)propan-1-ol], 124 ± 21 nM; as for `NCCC(O)c1cccc(OCC2CCCCC2)c1F` (stereo not shown) [Compound 52, 3-amino-1-(3-(cyclohexylmethoxy)-2-fluorophenyl)propan-1-ol], 358 ± 42 nM.
